In US20080261895A1 (Wyeth, priority 2006, published 2008):
Where “and” joins values, the source holds several entries; their conditions need not be identical. Equal entries are not always repeated.

What was measured:
[1] = Urinary excretion and metabolite profile by radiochromatography, rats; format: in vivo, Sprague Dawley rats; details: for Compounds Detected by Radiochromatography in urine (Mean ± S.D., n = 3), percent of total peaks / Radioactivity as % of Dose in urine, Mean ± S.D. / Radioactivity as % of Dose in urine, Individuals: single oral 20 mg/kg; for Radioactivity as % of Dose in urine, Individuals: listed as [^14C]DVS, 20 mg/kg
Description: Urine and feces were collected separately on dry ice from three animals per sex. Collections were from 0-8 and 8-24 hours for male rats and 0-8 hours for female rats. Fecal samples were homogenized in approximately five volumes (v/w) of water. Aliquots of approximately 0.4 grams of the homogenate were placed into combusto-cones, weighed and allowed to air dry. These samples were then oxidized. The remaining urine samples and fecal homogenates were stored at −70° C. until metabolite analysis.
All urine samples were analyzed for metabolite profiles. Aliquots of 0.5 mL urine were centrifuged at 3500 rpm and 4° C. in a Sorvall Super 21 centrifuge for 10 minutes. The supernatant was transferred to a fresh tube and analyzed for radioactivity content and by HPLC for profiling. Selected samples were also analyzed by LC/MS to characterize the radioactive peaks.
Chromatographic analyses were performed with a Waters Alliance model 2690 HPLC system (Waters Corp., Milford, Mass.). It was equipped with a built-in autosampler and was in-line with a model 2487 tunable UV detector, set to monitor 225 nm, and a FloOne β Model 525 radioactivity flow detector (Perkin Elmer) with a 250 μL LQTR flow cell. The flow rate of Ultima Flow M scintillation fluid was 1 mL/min, providing a mixing ratio of scintillation cocktail to mobile phase of 5:1. Separation of the metabolite peaks was accomplished on a Phenomenex Luna C18(2) column, 150×2.0 mm, 5 micron (Phenomenex, Torrance, Calif.), using a linear gradient of two mobile phases, A and B. Mobile phase A was 10 mM ammonium acetate, pH 6.0, and mobile phase B was acetonitrile. The flow rate was 0.2 mL/min.

[2] = Stability of [14C]DVS in control rat plasma; format: in vitro ADME; details: 37° C.
Description: (§1) The stability of [^14C]DVS in rat plasma was determined. [^14C]DVS (0.01 mg/mL, final concentration) was added to control rat plasma and incubated in a shaking water bath set to 37° C. Aliquots (0.5 mL) were removed at 0, 1, 4, 8 and 24 hours. Samples were extracted as described above and radiopurity assayed by HPLC analysis.

[3] = Stability of [14C]DVS in control rat urine; format: in vitro ADME; details: 37° C.
Description: as §1, with “urine” for “plasma”, “(0.13” for “(0.01”

dog liver microsomes = test: Glucuronidation in dog liver microsomes; format: in vitro ADME; details: dog liver microsomes 1 mg/mL, 100 μM, 30 minutes; in the presence of only UDPGA
Description: To confirm the site of glucuronidation of DVS, incubations were performed using dog liver microsomes. These incubations compared the glucuronidation of DVS to venlafaxine. […] Reactions were initiated by the addition of UDPGA (final concentration 1 mM). An additional set of incubations was performed for venlafaxine with UDPGA and an NADPH generating system. […] Reactions were stopped by the addition of 500 μL of acetonitrile and processed as described above. Samples were analyzed by LC/MS.

CN(C)CC(c1ccc(O)cc1)C1(O)CCCCC1.O=C(O)CCC(=O)O (stereo not shown) [DVS, O-desmethylvenlafaxine succinate]
Compounds Detected by Radiochromatography in urine (Mean ± S.D., n = 3), percent of total peaks ([1]; 0-8 hr, female): 20.0 ± 3.5% | Radioactivity as % of Dose in urine, Mean ± S.D. ([1]; 0-8 hr, female): 54.5 ± 12% | Radioactivity as % of Dose in urine, Individuals ([1]; 0-8 hr, female): 53.8% and 42.7% and 67.1% | Compounds Detected by Radiochromatography in urine (Mean ± S.D., n = 3), percent of total peaks ([1]; 0-8 hr, male): 10.9 ± 2.1% | Radioactivity as % of Dose in urine, Mean ± S.D. ([1]; 0-8 hr, male): 59.1 ± 7.9% | Radioactivity as % of Dose in urine, Individuals ([1]; 0-8 hr, male): 60.1% and 50.7% and 66.5% | Compounds Detected by Radiochromatography in urine (Mean ± S.D., n = 3), percent of total peaks ([1]; 8-24 hr, male): 9.1 ± 1.1% | Radioactivity as % of Dose in urine, Mean ± S.D. ([1]; 8-24 hr, male): 25.5 ± 6.4% | Radioactivity as % of Dose in urine, Individuals ([1]; 8-24 hr, male): 24.6% and 32.3% and 19.7% | % of the radioactive dose recovered in urine ([1]; within 24 hours post-dose): 85% | % of the radioactive dose recovered in urine ([1]; within the first 8 hours post-dose): greater than 50% | radiopurity of [14C]DVS in rat plasma ([2]; all time points up to 24 hours): greater than 98.9% | Stability of [14C]DVS in control rat plasma ([2]; up to 24 hours): stable | radiopurity of [14C]DVS in rat urine ([3]; all time points up to 24 hours): greater than 99.5% | Stability of [14C]DVS in control rat urine ([3]; up to 24 hours): stable | glucuronidation (dog liver microsomes): observed
